Measurements published in PMC9995496, “A screen for MeCP2-TBL1 interaction inhibitors using a luminescence-based assay” (Scientific Reports, 2023).
Structures can show the parent of a compound that is named as a salt. Where two headings read alike, the source gives them in different places.

Test system: PRKACA-PRKAR2A interaction (SmBiT-PRKACA / LgBiT-PRKAR2A), protein kinase A
Set-up: NanoLuc complementation counter-screen in cell extract, PRKACA with PRKAR2A, loss of luminescence, detects NanoLuc interference
Conditions: counter-screen for NanoLuc interference, 0.5 h, 20 µM, inhibitor

| Compound | Inh (PKA) (Inh (PKA)) | Inh (PKA) |
| --- | --- | --- |
| c1ccc2c(-c3cnn4cc(-c5ccc(N6CCNCC6)cc5)cnc34)ccnc2c1 [UM0141989:01, LDN-193189] | 1.838% | – |
| O=C1NC(=O)[C@@H](c2cn3c4c(cccc24)CCC3)[C@@H]1c1c[nH]c2ccccc12 [UM0141990:01, Tivantinib (ARQ 197)] | – | 34.28% |
| Cc1ncc(-c2ccnc(Nc3ccc(S(C)(=O)=O)cc3)n2)n1C(C)C [UM0141991:01, AZD-5438] | – | 13.33% |
| Cc1cc(Nc2ncc(Cl)c(Nc3ccccc3S(=O)(=O)C(C)C)n2)c(OC(C)C)cc1C1CCNCC1 [UM0141993:01, LDK378] | – | 11.01% |
| Nc1nc(Nc2ccc3c(c2)CCC(N2CCCC2)CC3)nn1-c1cc2c(nn1)-c1ccccc1CCC2 (centres unmarked) [UM0141994:01, R428] | – | 28.03% |
| O=C(O)c1ccc2c(c1)nc(Nc1cccc(Cl)c1)c1ccncc12 [UM0141995:01, CX-4945 (Silmitasertib)] | – | 36.81% |
| COc1cc(Nc2ncc(F)c(Nc3ccc4c(n3)N(COP(=O)(O)O)C(=O)C(C)(C)O4)n2)cc(OC)c1OC [UM0141996:01, R788 disodium] | 11.53% | – |
| Cc1ccc([C@@H]2O[C@H](CO)[C@@H](O)[C@H](O)[C@H]2O)cc1Cc1ccc(-c2ccc(F)cc2)s1 [UM0141997:01, Canagliflozin] | – | 13.33% |
| C[C@]1(O)C[C@@H](c2nc(-c3ccc4ccc(-c5ccccc5)nc4c3)c3c(N)nccn32)C1 [UM0141998:01, Linsitinib] | – | 15.97% |
| CC(=O)c1c(C)c2cnc(Nc3ccc(N4CCNCC4)cn3)nc2n(C2CCCC2)c1=O [UM0141999:01, Palbociclib (PD0332991) Isethionate] | 9.751% | – |
| C[C@@H]1CN(CC(=O)Nc2ccc3c(c2)Cc2cccc(-c4cc(=O)cc(N5CCOCC5)o4)c2S3)C[C@H](C)O1 [UM0142000:01, KU-60019] | – | 8.664% |
| Cc1cnc(CNC(=O)c2c(=O)c3ccc(N4CCCN(C)CC4)nc3n3c2sc2ccccc23)cn1 [UM0142001:01, CX-5461] | – | 4.891% |
| Cc1ccc(S(=O)(=O)OCC(=O)Nc2ccc(C(=O)O)c(O)c2)cc1 [UM0142002:01, NSC 74859] | – | 1.866% |
| CN(c1ncccc1CNc1nc(Nc2ccc3c(c2)CC(=O)N3)ncc1C(F)(F)F)S(C)(=O)=O [UM0142004:01, PF-562271 HCl] | 48.82% | – |
| Cc1nc(NC(=O)N2CCC[C@H]2C(N)=O)sc1-c1ccnc(C(C)(C)C(F)(F)F)c1 [UM0142005:01, BYL-719] | – | 2.69% |
| Cc1ccc(Nc2nccc(N(C)c3ccc4c(C)n(C)nc4c3)n2)cc1S(N)(=O)=O [UM0142006:01, Pazopanib Hydrochloride] | 14.36% | – |
| Cc1cccc(-c2nn3c(c2-c2ccnc4ccc(C(N)=O)cc24)CCC3)n1 [UM0142007:01, LY2157299] | – | 1.976% |
| COC(=O)N1CCN(Cc2cccc(NC(=O)Nc3ccc(C)nc3)c2F)CC1 [UM0142008:01, Omecamtiv mecarbil] | – | 3.022% |
| COc1cc(CCc2cc(NC(=O)c3ccc(N4C[C@@H](C)N[C@@H](C)C4)cc3)n[nH]2)cc(OC)c1 [UM0142009:01, AZD4547] | – | 12.3% |
| Cc1ccc(NC(=O)C2(c3ccc4c(c3)OC(F)(F)O4)CC2)nc1-c1cccc(C(=O)O)c1 [UM0142010:01, VX-809] | – | 21.09% |
| Cn1cnc(N)c2ncnc1-2 [UM0142011:01, 3-Methyladenine] | – | 0.4537% |
| Oc1ncnc2[nH]ncc12 [UM0142014:01, Allopurinol] | – | -0.9072% |
| CC1CNc2c(cccc2S(=O)(=O)N[C@@H](CCCNC(=N)N)C(=O)N2CC[C@@H](C)C[C@@H]2C(=O)O)C1 (some centres unmarked) [UM0142015:01, Argatroban] | – | 1.414% |
